Test results: publication PMC7867085, “In Vitro and In Vivo Antitumor Activity of Indolo[2,3-b] Quinolines, Natural Product Analogs from Neocryptolepine Alkaloid” (Molecules, 2021)
Entries after “also recorded” stand apart in the source; their conditions may differ.

How the values were obtained:
[1] = system: EAC cells; assay: Flow cytometric analysis of cell cycle distribution of EAC cells from treated mice; assay type: in vivo; settings: EAC bearing mice, 100 mg/kg for 5 days; for Apoptotic Cells (sub-G1) / Non-Apoptotic Cells G0/G1 / Non-Apoptotic Cells G2/M / Non-Apoptotic Cells S: percentage of cells
Text: Flow cytometry is a technique that gives a clue to the mechanism by which cytotoxic agents affect the cell cycle by sorting and analyzing cells based on their content of DNA. Flow cytometry was used to further evaluate the effects of the indoloquinoline compounds modes-of-action to the cellular level, and we extended our studies on the cell cycle effects. To know whether cell cycle changes were aligned with the inhibition of cell growth, the cell cycle phase distribution was examined via flow cytometry. The cell cycle was analyzed in EAC-bearing mice treated with indoloquinoline analogs 6a, 6b, 6c and 6d (at a dose of 100 mg/kg for 5 constitutive days).
Flow cytometry was used to calculate the percentage of cells in each phase of the cell cycle in both positive control (exposed to 0.3% DMSO) and treated cells, results illustrated in (Table 10 and Figure 2). The influence of indoloquinoline derivatives on EAC cells indicated noticeable cell cycle specificity. In comparison with the positive control group, an appreciable change in the cell cycle occurred in giving the studied compounds. The sub-G1 population indicated apoptotic-associated chromatin degradation.
Fresh tumor tissue specimens from treated and untreated groups were transported to our laboratory in isotonic saline. The specimens were prepared following these steps: • The material was washed with isotone tris EDTA buffer. Then, the cell suspension was centrifuged at 1800 rpm for 10 min; the supernatant was then separated; • The cell is then fixed in ice-cold 96–100% ethanol (BDH) in approximately 1 mL for each sample; • Two milliliters of phosphate buffer solution (PBS) were used to wash the sample, which was recentrifuged at 1500 rpm for 5 min then the supernatant was thrown away; • Granules of the Tumor cells were put back into suspension using 200–500 µL of PBS. Into polystyrene tube, 100 µL of the suspension was transferred and then stained with 1.5 mL of propidium iodide. The tube is kept at 4 °C in a dark place for one hour; • The sample was run in the flow cytometer within 30 min after the addition of propidium iodide.
The flow cytometer was carried out with FACS caliber flow cytometer (Becton Dickinson, Sunnyvale, CA, USA) equipped with a compact air cocked low-power 15 m watt argon ion laser beam (488 nm). The average number of evaluated nuclei per specimen 20,000, and the number of nuclei scanned was 120 per second. DNA histogram derived from flow cytometry was obtained with a computer program for Dean and Jett’s mathematical analysis. Data analysis was conducted using DNA analysis program MPDFIT (Verity Software House, Inc. Box 247, Topsham, ME 04086 USA, version: 2.0, power Mac with 131,072 KB Registration No.: 42000960827-16193213 Date made: 16 September 1996). This software calculated the CV around the G0/G1 peak and the percentage of cells in each phase (G0/G1, S and G2/M) of the DNA cell cycle for each sample.

[2] = system: EAC solid tumor; assay: Histopathological examination of tumor sections (H and E); assay type: in vivo, mice; settings: for tumor section histopathology (necrosis): EAC bearing mouse, H and E × 200, Figure 3; for tumor cell death (histopathology): EAC solid tumor, compared with other molecules
Method: Results of the treated group and that of the positive control group are illustrated in (Figure 3 and Figure 4). […] At the same time, the count of mitotic cells was less in the studied analogs 6a, 6b, 6c and 6d as measured up to that of the positive control group.
Each tumor or liver sample for each mouse was separated and kept in 10% formalin solution and dehydrated in a graded alcohol series. Each specimen was treated with xylene and then inserted in paraffin blocks. The specimen was cut into sections, the thickness of each section is five-micron, hematoxylin, and eosin (H and E) were added for staining. The stained liver specimen was used to assess the degree of degradation and necrosis using a reported scaling system; the scaling system use numbers from 0 to 3 to reflect necrosis severity. Starting from 0, which indicates no necrosis and moves to mild, moderate, and severe necrosis indicated by 1, 2, and 3, respectively. Mild and moderate stages are defined as focal and multifocal necrosis or degradation of hepatocytes, respectively, while severe is characterized by local immense, spread out necrosis or damaged liver cells. Tumor specimen stained with H and E were used to evaluate the severity and percentage of necrosis by the same previously mentioned scaling system.
H and E-stained slides of tumor specimens were used also used to calculate the H score as well as the mitosis counting and apoptotic tumor cell counting, ten arbitrarily chosen microscopic fields were used for each mitosis and apoptotic tumor cell counting, this was considered as examining at least 1000 tumor cells. High magnification (400×) was used for microscopic examination.

[3] = system: EAC-induced solid tumor; assay: Antitumor activity: reduction in tumor volume of EAC-induced solid tumor; assay type: in vivo, Swiss female albino mice; settings: day 12 (last day of treatment), 100 mg/kg SC daily for five consecutive days
Method: The aim of this study is to characterize indoloquinoline analogs 6a–d curative ability and antineoplastic activity on solid-form of Ehrlich tumors. Tumor volume is a potential biomarker for Ehrlich tumor development. The induction of solid tumor in Swiss female mice performed by inserting 0.2 mL of EAC cells (2 × 10^6 cell/mL) subcutaneously (SC) between thighs of the lower limb. When the tumor volume reached 15–20 mm^3 (Seven days after tumor induction), the mice were randomly divided into 6 groups (n = 10), five groups were injected subcutaneously with thalidomide and indoloquinoline analogs 6a–d (100 mg/kg) daily for five consecutive days, the sixth group (positive control group) were given DMSO/saline (0.3/0.7). The 8th day is considered the zero days of treatment. The tumor volume was daily measured with a vernier caliper for four days stated from day eight.
Thalidomide and indoloquinoline derivatives 6a–d were tested for their antitumor effect; the test was done in vivo on mice-bearing solid tumors. The induction of solid tumor in Swiss female mice performed by inserting 0.2 mL of EAC cells (2 × 10^6 cell/mL) subcutaneously (SC) between thighs of the lower limb. Seven days after tumor induction, animals were divided into 6 groups (n = 10), five groups were injected subcutaneously with 100 mg/kg of tested compounds daily for 5 consecutive days, the sixth group (positive control group) were given 0.3 DMSO/0.7 H2O. On day twelve, after carrying out EAC cells, mice were sacrificed, dissected, and change in tumor mass was evaluated by measuring the developed tumor mass volume using the formula [45, 46]:Tumor volume (mm^3) = 0.52 × length × (width)^2.(1)

| Compound | increase of G2/M fraction relative to positive control [1] | increase of cells in S-phase relative to positive control [1] | increase of sub-G1 group as compared to control [1] | reduction of G0/G1 fraction relative to positive control [1] | Apoptotic Cells (sub-G1) [1] | Non-Apoptotic Cells G0/G1 [1] | Non-Apoptotic Cells G2/M [1] | Non-Apoptotic Cells S [1] | tumor section histopathology (necrosis) [2] | reduction percentage in tumor volume [3] | reduction of S-phase fraction relative to positive control [1] | increase of G0/G1 cell population relative to positive control [1] | reduction of G2/M fraction relative to positive control [1] | antimitotic effect (count of mitotic cells) ([2]; EAC bearing mice, H and E) | tumor cell death (histopathology) [2] |
| --- | --- | --- | --- | --- | --- | --- | --- | --- | --- | --- | --- | --- | --- | --- | --- |
| 5(5-Methyl-5H-indolo[2,3-b] quinolin-11-ylamino) Pyrimidine-2,4(1H,3H)-dione [Compound 6c] | ~269.5% | ~411.3% | 683% | about 95.7% | 12.30 ± 0.15 | 3.30 ± 0.15 | 56.20 ± 0.1 | 40.50 ± 2.41 | massive area of coagulative necrosis (Ne) with viable tumor cells | 93.29% | – | – | – | – | – |
| 5-Methyl-N-(4-methylpiperazin-1-yl)-5H-indolo[2,3-b] Quinolin-11-amine [Compound 6d] | 263.3% | – | 975% | 46% | 16.88 ± 0.6 | 41.30 ± 0.31 | 55.26 ± 0.06 | 3.44 ± 0.27 | massive geographic coagulative necrosis (Ne) surrounded by viable tumor cells | 94.90% | 56.6% | – | – | – | – |
| Cn1c2nc3ccccc3c-2c(Nc2ccc(Br)cc2F)c2ccccc21 [Compound 6a, N-(4-Bromo-2-fluorophenyl)-5-methyl-5H-indolo[2,3-b] Quinolin-11-amine] | – | – | 106% | – | 3.23 ± 0.01 | 90.27 ± 6.35 | 4.61 ± 0.6 | 5.12 ± 0.36 | massive, coagulated necrosis (Ne) with minimal residual malignant cells | 90.58% | about 35.3% | 17.4% | 69.7% | greatest antimitotic effect | supremely cell death percentage and apoptosis |
| Cn1c2nc3ccccc3c-2c(NCCc2c[nH]c3ccccc23)c2ccccc21 [Compound 6b, N-(2-(1H-Indol-3-yl)ethyl)-5-methyl-5H-indolo[2,3-b] Quinolin-11-amine] | 26.2% | – | 1452% | – | 24.36 ± 0.01 | 78.44 ± 0.04 | 19.21 ± 0.09 | 2.35 ± 0.13 | extensive necrosis (Ne) with minimal viable malignant cells | 87.37% | about 70.3% | 2% | – | – | supremely cell death percentage and apoptosis; also recorded: highest effect in tumor cell death without harming liver cells |
